Key:
[1] = target: T1, Fatty-acid amide hydrolase 1 (Homo sapiens) (UniProt O00519)
T1 sequence (whole entry): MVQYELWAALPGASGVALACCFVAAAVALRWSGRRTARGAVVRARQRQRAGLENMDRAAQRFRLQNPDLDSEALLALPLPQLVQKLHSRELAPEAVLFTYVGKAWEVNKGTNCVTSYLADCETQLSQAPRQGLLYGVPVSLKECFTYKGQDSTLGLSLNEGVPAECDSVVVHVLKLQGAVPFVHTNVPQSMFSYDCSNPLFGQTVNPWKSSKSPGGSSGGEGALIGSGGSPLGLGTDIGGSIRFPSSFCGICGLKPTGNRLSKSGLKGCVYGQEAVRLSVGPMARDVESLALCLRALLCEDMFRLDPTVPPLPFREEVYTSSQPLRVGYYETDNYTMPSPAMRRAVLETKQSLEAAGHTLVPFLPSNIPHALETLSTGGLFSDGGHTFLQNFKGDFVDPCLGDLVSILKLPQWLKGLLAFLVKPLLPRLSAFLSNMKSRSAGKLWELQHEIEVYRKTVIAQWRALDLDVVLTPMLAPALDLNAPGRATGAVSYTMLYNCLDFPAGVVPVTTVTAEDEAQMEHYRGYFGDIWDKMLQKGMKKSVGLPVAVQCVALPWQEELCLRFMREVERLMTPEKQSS
Description: Binding affinity to FAAH assessed as thermal stability by measuring melting temperature

[2] = target: T2, Fatty-acid amide hydrolase 1 (Homo sapiens, UniProt O00519); test: Inhibition of FAAH at pH 9
T2 sequence (O00519 whole entry): T1 sequence (whole entry)

[3] = target: T2, Fatty-acid amide hydrolase 1; test: Inhibition of FAAH at pH 7.5

SMILES | Tm [1] | Ki [2] | Ki [3]
NC(=O)c1cccc(-c2cnc(C(=O)CCCCCCc3ccccc3)o2)n1 | 55 °C | – | –
O=C(CCCCCCc1ccccc1)c1nnc(-c2ccccn2)o1 | 60.6 °C | 0.29 nM | –
O=C(O)c1cccc(-c2cnc(C(=O)CCc3ccc(-c4ccc(CN5CCSCC5)cc4)cc3)o2)n1 | 65.3 °C | 28 nM | –
COC(=O)c1cccc(-c2cnc(C(=O)CCCCCCc3ccccc3)o2)n1 | 53.4 °C | – | –
O=C(O)c1cccc(-c2cnc(C(=O)CCCCCCc3ccccc3)o2)n1 | – | – | 10.4 nM
O=C(O)c1cccc(-c2nnc(C(=O)CCCCCCc3ccccc3)o2)n1 | 64.3 °C | 14 nM | –
O=C(CCCCCCc1ccccc1)c1ncc(-c2cccc(-c3nnn[nH]3)n2)o1 | 54.7 °C | 40 nM | –

Further lines, with some results ahead:

Tm [1] | Ki [2] | SMILES | Ki [3]
47.2 °C | – | O=C(CCCCCCc1ccccc1)c1ncc(-c2ccccc2)o1 | –
59.9 °C | – | O=C(CCc1ccc(-c2ccccc2)cc1)c1ncc(-c2ccccn2)o1 | –
58.5 °C | – | O=C(CCCCCCc1ccccc1)c1ncc(-c2ccccn2)o1 | –
– | 22 nM | O=C(O)c1cccc(-c2cnc(C(=O)CCc3ccc(-c4ccccc4)cc3)o2)n1 | –

Reference: ChEMBL document CHEMBL1151780, “Correlation of inhibitor effects on enzyme activity and thermal stability for the integral membrane protein fatty acid amide hydrolase” (Bioorg Med Chem Lett, 2008)
